One data set deals with HEK293. As to the kind of experiment: Viability assay (CellTiter-Glo), HEK293. Format: cell-based, human. To be noted: for Cell viability (%) HEK293 120 μM: CellTiter-Glo.
Data set [1] has as its system RAW macrophages. The experiment in a line: NO production (Griess assay), LPS/IFNγ-activated RAW264.7 macrophages. Format: cell-based, mouse. To be noted: Mus musculus, Macrophage, 24 h. In general terms: Nitrite, measured by Griess reagent, commonly stands in for NO production.
For another data set, the target named is T1, DOR (δ opioid receptor) (Homo sapiens, UniProt P41143).
T1 construct: expressed in transfected cells; host or cells: HEK293
As to the kind of experiment: DOR radioligand binding ([3H]-DADLE, HEK293 cell homogenates). To be noted: for inhibition at 10 µM: Percent inhibition at 10,000 nM, [3H]-DADLE.

Another data set addresses T2, KOR (κ opioid receptor) (Homo sapiens, UniProt P41145).
T2 construct: expressed in transfected cells; host or cells: HEK293 (stably transfected)
As to the kind of experiment: KOR radioligand binding ([3H]-U69593, HEK293 cell homogenates). To be noted: for inhibition at 10 µM: Percent inhibition at 10,000 nM, [3H]-U69593.

The test system of a further data set is Mouse microglia. As to the kind of experiment: Cell viability (CellTiter-Glo), mouse microglia. Format: cell-based. To be noted: 50 μM; for Cell viability (%) Mouse microglia 50 μM: CellTiter-Glo. The procedure, abridged: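 Mouse microglia (1×10^6 cells/mL) activated with 50 ng/ml LPS plus 150 U/mL IFNγ, incubated with compounds ~24 h at 37° C. Viability of remaining cells read by CellTiter-Glo luminescence after supernatant removal for Griess NO assay; […].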
(In general: Cellular ATP, detected with luciferase, serves as a proxy for viable cell number.)

Data set [2] deals with RAW macrophages. The experiment in a line: Cell viability (CellTiter-Glo), RAW macrophages. The class given is cell-based, mouse. To be noted: for Cell viability (%) RAW macrophages 50 μM: CellTiter-Glo.
In the next data set the target is T3, MOR (μ opioid receptor) (Homo sapiens, UniProt P35372).
T3 construct: expressed in transfected cells; host or cells: HEK293
As to the kind of experiment: MOR radioligand binding ([3H]-DAMGO, HEK293 cell homogenates). To be noted: for inhibition at 10 µM: Percent inhibition at 10,000 nM, [3H]-DAMGO.

For the compound `C#Cc1ccc2c(c1)C(c1ccccc1F)=N[C@H](C)c1c(-c3nc(C(C)C)no3)ncn1-2` [MP-IV-010, (R)-5-(8-ethynyl-6-(2-fluorophenyl)-4-methyl-4H-benzo[f]imidazo[1,5-a][1,4]diazepin-3-yl)-3-isopropyl-1,2,4-oxadiazole], the “Cell viability (%) HEK293 120 μM” value in the data set on HEK293 is 41 ± 4%. In addition, the “toxicity at 120 μM (in words)” value with HEK293 (HEK293, 120 μM) is recorded as “some cytotoxicity”. Further, the inhibition at 10 µM in the data set with RAW macrophages [1] was determined as 10 ± 2%; at DOR (δ opioid receptor), 5%; at KOR (κ opioid receptor), 94%; on MOR (μ opioid receptor), 33%. The same compound yielded an inhibition at 50 µM in the data set with RAW macrophages [1] of 63 ± 11%. Further, on DOR (δ opioid receptor) (PDSP primary screening), the “Percent Competition DOR” value is given as 5%. Also, the IC50 at KOR (κ opioid receptor) amounted to 351 nM. On KOR (κ opioid receptor), the Ki came out at 145 nM. For the same compound, the “Percent Competition KOR” value on KOR (κ opioid receptor) (PDSP primary screening) came to 94%. In the data set with Mouse microglia, the “Cell viability (%) Mouse microglia 50 μM” value was determined as 91 ± 10%. For the same compound, the “toxicity at 50 μM (in words)” value in the data set on Mouse microglia (microglia) and in the data set with RAW macrophages [2] (macrophages) was “no significant toxicity” in each case. In addition, the “Cell viability (%) RAW macrophages 50 μM” value in the data set with RAW macrophages [2] turned out to be 81 ± 10%. For the same compound, at MOR (μ opioid receptor) (PDSP primary screening), the “Percent Competition MOR” value is on record as 33%.

With `C[C@H]1N=C(c2ccccn2)c2cc(Br)ccc2-n2cnc(C(=O)O)c21` [GL-II-51], the “Cell viability (%) HEK293 120 μM” value in the data set on HEK293 is listed as 91 ± 4%. Also, the inhibition at 10 µM is 0% in the data set with RAW macrophages [1], 0% on DOR (δ opioid receptor), 11% at KOR (κ opioid receptor) and 0% at MOR (μ opioid receptor). Moreover, the “Cell viability (%) Mouse microglia 50 μM” value in the data set with Mouse microglia came out at 95 ± 2%. For the same compound, the “Cell viability (%) RAW macrophages 50 μM” value in the data set with RAW macrophages [2] came to 100 ± 3%.

Usually inhibition stands for the change of the read-out against control, counted positive when it falls. As a reminder, the IC50 is the concentration that gives 50% inhibition. As usually defined, the Ki is the equilibrium dissociation constant of an inhibitor or competing ligand from its target.

(Values after patent US20240279232A1, “USE OF SUBSTITUTED 5-(4-METHYL-6-PHENYL-4H-BENZO[F]IMIDAZO[1,5-A][1,4] DIAZEPIN-3-YL)-1,2,4-O[…] THE TREATMENT OF INFLAMMATORY CONDITIONS” (priority 2021, published 2024).)
